According to PubChem BioAssay (NCI):
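GI50 = concentration required for 50% inhibition of growth. TGI marks complete inhibition of growth.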

Tests used:
Assay in all cases: inhibition of tumour cell growth, NCI panel, 384-well format
RXF 393 renal = tested on: RXF 393 renal
NCI-H460 NSCLC = tested on: NCI-H460 NSCLC
SK-MEL-28 melanoma = tested on: SK-MEL-28 melanoma
SF-539 CNS = tested on: SF-539 CNS
OVCAR-4 ovarian = tested on: OVCAR-4 ovarian
HOP-92 NSCLC = tested on: HOP-92 NSCLC
U251 glioblastoma = tested on: U251 glioblastoma
MOLT-4 leukemia = tested on: MOLT-4 leukemia
T-47D breast = tested on: T-47D breast
NCI-H322M lung = tested on: NCI-H322M lung
HL-60(TB) leukemia = tested on: HL-60(TB) leukemia
HCC-2998 colon = tested on: HCC-2998 colon
K-562 leukemia = tested on: K-562 leukemia

## COc1cc2c(Nc3cc(Cl)c(OC)c(Cl)c3)c(C#N)cnc2cc1OCCCN1CCN(C)CC1
RXF 393 renal
  GI50: 221 nM
  TGI: 677 nM
NCI-H460 NSCLC
  GI50: 1020 nM
  TGI: 2230 nM
SK-MEL-28 melanoma
  GI50: 1440 nM
  TGI: 2800 nM
SF-539 CNS
  GI50: 222 nM
  TGI: 484 nM
OVCAR-4 ovarian
  GI50: 808 nM
  TGI: 2170 nM
HOP-92 NSCLC
  GI50: 465 nM
  TGI: 1490 nM
U251 glioblastoma
  GI50: 1240 nM
  TGI: 2510 nM
MOLT-4 leukemia
  GI50: 163 nM
  TGI: 313 nM
T-47D breast
  GI50: 1330 nM
  TGI: 2630 nM
NCI-H322M lung
  GI50: 234 nM
  TGI: 1110 nM
HL-60(TB) leukemia
  GI50: 795 nM
  TGI: 2060 nM
HCC-2998 colon
  GI50: 1060 nM
  TGI: 2260 nM
K-562 leukemia
  GI50: 166 nM
  TGI: 330 nM
